{
  "source": "patent US20260234099A1",
  "about": "“Endocannabinoid ligands and related analogs” (Northeastern University, priority 2023, published 2026)",
  "key": {"CB2 receptor (hCB2)": {"target": "CB2 receptor (hCB2) (Homo sapiens, UniProt P34972)", "sequence (P34972 whole entry)": "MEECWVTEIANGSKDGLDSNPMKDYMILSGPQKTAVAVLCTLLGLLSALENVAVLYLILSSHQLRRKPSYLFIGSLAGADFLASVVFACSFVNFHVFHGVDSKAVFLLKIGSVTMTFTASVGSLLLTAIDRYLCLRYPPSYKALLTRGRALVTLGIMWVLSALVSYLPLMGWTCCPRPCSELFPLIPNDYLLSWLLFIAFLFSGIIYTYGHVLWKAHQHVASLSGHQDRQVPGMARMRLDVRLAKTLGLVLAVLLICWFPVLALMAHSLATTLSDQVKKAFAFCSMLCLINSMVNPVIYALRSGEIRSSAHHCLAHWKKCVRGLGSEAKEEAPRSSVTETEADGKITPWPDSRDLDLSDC", "assay": "cAMP assay (inhibition of FSK stimulated cAMP), CB2", "format": "cell-based", "method": "FIG. 2A is a graph providing data of the % inhibition of FSK stimulated cAMP for compound 6.1.1 for hCB2.\nFurther functional characterization of some of the disclosed compounds tested initially for “binding affinity” or for GTPγ-S binding was performed by using the cyclic adenosine monophosphate (cAMP) assay. Key compounds initially characterized functionally using the GTPγ-S assay were also doubly tested using the cAMP assay to unambiguously confirm their functional profiles. The functional potency of the compounds tested using the cyclase assay is also represented by the EC50 (cAMP) value and similarly the lower the EC50 (cAMP) value the higher the potency of the compound for the receptor. A detailed description of the methods used to test compounds using the cAMP assay is given in Yingpeng, et al. J. Med. Chem. (2018) 61, 8639-8657 the content of which is hereby incorporated by reference. The EC50 values (potency of a test compound) of the functional assays may or may not be accompanied by the E(max) value in tables 1-5 (efficacy of the test compound). E(max)/efficacy is the maximum GTP stimulation or cAMP inhibition levels and is presented as the percentage of maximum response evoked by a standard CB1/CB2 full agonist (e.g., CP-55,940) for reference see the paper cited above. If a test compound has an efficacy close to 100% of the standard full agonist, then the test compound is also classified as full agonist."}, "CB2 receptor [1]": {"target": "T1, CB2 receptor (Homo sapiens, UniProt P34972)", "T1 sequence (P34972 whole entry)": "as above", "assay": "GTPγ-S binding assay, CB2", "format": "biochemical", "method": "The activity of some of the disclosed compounds for the CB1 and CB2 receptors was assessed by using the GTPγ-S binding assay (Tables 2,3,4). As used herein the “effect” of the compound on the GTPγ-S assay is represented by the EC50 (GTP) value. The lower the EC50 (GTP) value the higher the potency of the compound for the receptor A detailed description of the methods used to test compounds using the GTPγ-S assay is given in Parkkari, et al., Biorg. Med. Chem. Letters 2006, 16(9), 2437 and Griffin, et al., J. Pharmacol. Exp. Ther. 1998, 285(2), 553-560 the content of which is hereby incorporated by reference."}, "CB1 receptor [2]": {"target": "T2, CB1 receptor (Rattus norvegicus, UniProt P20272)", "T2 sequence (P20272 whole entry)": "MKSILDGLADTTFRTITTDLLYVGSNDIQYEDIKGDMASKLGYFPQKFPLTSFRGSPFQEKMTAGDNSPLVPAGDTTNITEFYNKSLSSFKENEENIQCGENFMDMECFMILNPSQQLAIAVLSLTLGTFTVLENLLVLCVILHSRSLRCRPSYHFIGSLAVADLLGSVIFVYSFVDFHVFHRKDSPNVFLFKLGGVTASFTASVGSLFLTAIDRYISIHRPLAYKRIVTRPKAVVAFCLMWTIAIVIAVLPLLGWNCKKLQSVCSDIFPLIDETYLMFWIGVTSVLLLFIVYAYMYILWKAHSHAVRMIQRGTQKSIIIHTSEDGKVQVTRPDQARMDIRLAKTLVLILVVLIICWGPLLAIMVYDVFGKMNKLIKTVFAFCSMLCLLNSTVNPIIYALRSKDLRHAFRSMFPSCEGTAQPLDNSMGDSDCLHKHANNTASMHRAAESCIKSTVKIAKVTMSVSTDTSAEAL", "assay": "CB1 receptor binding affinity (Ki)", "method": "(§1) Some disclosed compounds were tested for CB1 and CB2 receptor binding affinity (Tables 1, 2, 3, 4, 5). As used herein “binding affinity” is represented by the Ki value. The Ki value is the affinity constant and describes the affinity of the compound for the receptor. […] A detailed description of the methods used to test “binding affinity” of compounds is given in Makriyannis, et al., US 2007/0135388 the content of which is hereby incorporated by reference."}, "CB1 receptor (rCB1)": {"target": "CB1 receptor (rCB1) (Rattus norvegicus, UniProt P20272)", "sequence (P20272 whole entry)": "as above", "assay": "cAMP assay (inhibition of FSK stimulated cAMP), CB1", "format": "cell-based", "method": "Further functional characterization of some of the disclosed compounds tested initially for “binding affinity” or for GTPγ-S binding was performed by using the cyclic adenosine monophosphate (cAMP) assay. […] A detailed description of the methods used to test compounds using the cAMP assay is given in Yingpeng, et al. J. Med. Chem. (2018) 61, 8639-8657 the content of which is hereby incorporated by reference. The EC50 values (potency of a test compound) of the functional assays may or may not be accompanied by the E(max) value in tables 1-5 (efficacy of the test compound). E(max)/efficacy is the maximum GTP stimulation or cAMP inhibition levels and is presented as the percentage of maximum response evoked by a standard CB1/CB2 full agonist (e.g., CP-55,940) for reference see the paper cited above."}, "CB2 receptor [3]": {"target": "T1, CB2 receptor", "assay": "CB2 receptor binding affinity (Ki)", "parameters": "CB2 receptor Ki; CB2 receptor Ki (PMSF); other: with PMSF", "method": "as §1"}, "CB2 receptor [4]": {"target": "T1, CB2 receptor", "assay": "hCB2 receptor binding affinity (Ki), Table 7", "method": "Some disclosed compounds were tested for CB1 and CB2 receptor binding affinity (Tables 1, 2, 3, 4, 5). As used herein “binding affinity” is represented by the Ki value. The Ki value is the affinity constant and describes the affinity of the compound for the receptor. The lower the Ki value, the higher the affinity of the compound for the receptor. A detailed description of the methods used to test “binding affinity” of compounds is given in Makriyannis, et al., US 2007/0135388 the content of which is hereby incorporated by reference."}, "CB1 receptor [5]": {"target": "T2, CB1 receptor", "assay": "GTPγ-S binding assay, CB1", "format": "biochemical", "details": "class symbols; read-out: EC50 (GTP) CB1 receptor", "method": "The activity of some of the disclosed compounds for the CB1 and CB2 receptors was assessed by using the GTPγ-S binding assay (Tables 2,3,4). As used herein the “effect” of the compound on the GTPγ-S assay is represented by the EC50 (GTP) value. […] Med. Chem. Letters 2006, 16(9), 2437 and Griffin, et al., J. Pharmacol. Exp. Ther. 1998, 285(2), 553-560 the content of which is hereby incorporated by reference."}, "CB2 receptor [6]": {"target": "T1, CB2 receptor", "assay": "CB2 receptor binding affinity (Ki)", "parameters": "CB2 receptor Ki", "method": "as §1"}, "[7]": {"details": "with PMSF, read-out: CB1 Receptor Ki with PMSF"}, "[8]": {"details": "without PMSF, read-out: CB1 receptor affinity Ki"}, "[9]": {"details": "percentage of maximum response of standard full agonist (e.g., CP-55,940)"}},
  "note": "Like-named read-outs stand apart in the source and are kept apart here.",
  "data": [
    {"smiles": "CCCCC/C=C\\C/C=C\\C/C=C\\C/C=C\\CCCC(=O)OC(CO)CO", "note": "[Compound 2-AG, 2-arachidonoylglycerol, reference compound]", "values": [
      {"measurement": "EC50", "setting": "CB2 receptor (hCB2); class symbols", "result": "10 to 200", "unit": "nM"},
      {"measurement": "EC50", "setting": "CB2 receptor [1]; class symbols, read-out: EC50 (GTP) CB2 receptor", "result": "200 to 1000", "unit": "nM"}
    ]},
    {"smiles": "C[C@H](/C=C\\C/C=C\\C/C=C\\CCCC(=O)N[C@H](C)CO)/C=C\\CCCCCC#N", "note": "[Compound 4.1.5a, (S,5Z,8Z,11Z,14Z)-20-Cyano-N—((R)-1-hydroxypropan-2-yl)-13-methylicosa-5,8,11,14-tetraenamide]", "values": [
      {"measurement": "Ki", "setting": "CB1 receptor [2]; [7]", "result": "0.01 to 10", "unit": "nM"},
      {"measurement": "Ki", "setting": "CB1 receptor [2]; [8]", "result": "0.01 to 10", "unit": "nM"},
      {"measurement": "functional profile at CB1 (cAMP)", "setting": "CB1 receptor (rCB1); full or partial agonist", "result": "partial agonist"},
      {"measurement": "EC50", "setting": "CB1 receptor (rCB1); numeric", "result": 8.7, "unit": "nM"},
      {"measurement": "Emax", "setting": "CB1 receptor (rCB1); [9]", "result": 76, "unit": "%"},
      {"measurement": "Ki", "setting": "CB2 receptor [3]; read-out: CB2 receptor Ki", "result": "0.01 to 10", "unit": "nM"}
    ]},
    {"smiles": "C[C@H](/C=C\\C/C=C\\C/C=C\\CCCC(=O)N[C@H](C)CO)/C=C\\CCCCC(F)(F)F", "note": "[Compound 4.1.5c]", "values": [
      {"measurement": "Ki", "setting": "CB2 receptor [4]", "result": 3.6, "unit": "nM"},
      {"measurement": "fold higher binding affinity for CB2 compared to AM 356", "setting": "CB2 receptor [4]; vs AM 356", "result": 61, "unit": "fold"},
      {"measurement": "fold higher binding affinity for CB2 compared to AMG 315", "setting": "CB2 receptor [4]; vs AMG 315", "result": 49, "unit": "fold"}
    ]},
    {"smiles": "CCCCC1(/C=C\\C/C=C\\C/C=C\\C/C=C\\CCCC(=O)N[C@H](C)CO)CCCC1", "note": "[Compound 4.4.3, (5Z,8Z,11Z,14Z)-15-(1-Butylcyclopentyl)-N—((R)-1-hydroxypropan-2-yl)pentadeca-5,8,11,14-tetraenamide]", "values": [
      {"measurement": "Ki", "setting": "CB1 receptor [2]; [7]", "result": "200 to 1000", "unit": "nM"},
      {"measurement": "Ki", "setting": "CB2 receptor [3]; read-out: CB2 receptor Ki (PMSF), with PMSF", "result": "> 1000", "unit": "nM"}
    ]},
    {"smiles": "CCCCCc1ccccc1C/C=C\\C/C=C\\C/C=C\\CCCC(=O)N[C@H](C)CO", "note": "[Compound 4.6.3, (5Z,8Z,11Z)—N—((R)-1-hydroxypropan-2-yl)-13-(2-pentylphenyl)trideca-5,8,11-trienamide]", "values": [
      {"measurement": "Ki", "setting": "CB1 receptor [2]; [7]", "result": "10 to 200", "unit": "nM"},
      {"measurement": "Ki", "setting": "CB1 receptor [2]; [8]", "result": "10 to 200", "unit": "nM"},
      {"measurement": "Ki", "setting": "CB2 receptor [3]; read-out: CB2 receptor Ki", "result": "10 to 200", "unit": "nM"}
    ]},
    {"smiles": "C[C@H](/C=C\\C/C=C\\C/C=C\\CCCC(=O)N[C@H](C)CO)/C=C\\CCCCCO", "note": "[Compound 4.7.2]", "values": [
      {"measurement": "Ki", "setting": "CB1 receptor [2]; [8]", "result": "10 to 200", "unit": "nM"},
      {"measurement": "Ki", "setting": "CB2 receptor [3]; read-out: CB2 receptor Ki", "result": "10 to 200", "unit": "nM"}
    ]},
    {"smiles": "C[C@H](/C=C\\C/C=C\\C/C=C\\CCCC(=O)N[C@H](C)CO)/C=C\\CCCCCF", "note": "[Compound 4.7.4, (S,5Z,8Z,11Z,14Z)-20-Fluoro-N—((R)-1-hydroxypropan-2-yl)-13-methylicosa-5,8,11,14-tetraenamide]", "values": [
      {"measurement": "Ki", "setting": "CB1 receptor [2]; [8]", "result": "0.01 to 10", "unit": "nM"},
      {"measurement": "Ki", "setting": "CB2 receptor [3]; read-out: CB2 receptor Ki", "result": "10 to 200", "unit": "nM"}
    ]},
    {"smiles": "CCCCC/C=C\\C/C=C\\C/C=C\\C/C=C\\C1CC[C@@H](C(=O)OC(CO)CO)C1", "note": "(some centres unmarked) [Compound 5.2.2e]", "values": [
      {"measurement": "EC50", "setting": "CB1 receptor [5]", "result": "> 1000", "unit": "nM"},
      {"measurement": "EC50", "setting": "CB2 receptor (hCB2); class symbols", "result": "200 to 1000", "unit": "nM"}
    ]},
    {"smiles": "CCCCC/C=C\\C/C=C\\C/C=C\\C/C=C\\COC(C)C(=O)OC(CO)CO", "note": "(centres unmarked) [Compound 5.3.3, 1,3-Dihydroxypropan-2-yl 2-(((2Z,5Z,8Z,11Z)-heptadeca-2,5,8,11-tetraen-1-yl)oxy)propanoate]", "values": [
      {"measurement": "EC50", "setting": "CB1 receptor [5]", "result": "> 1000", "unit": "nM"}
    ]},
    {"smiles": "CCCCC/C=C\\C/C=C\\C/C=C\\[C@H](C)/C=C\\CCCC(=O)OC(CO)CO", "note": "[Compound 5.4.3a, 1,3-Dihydroxypropan-2-yl (R,5Z,8Z,11Z,14Z)-7-methylicosa-5,8,11,14-tetraenoate]", "values": [
      {"measurement": "EC50", "setting": "CB1 receptor [5]", "result": "> 1000", "unit": "nM"},
      {"measurement": "EC50", "setting": "CB2 receptor [1]", "result": "200 to 1000", "unit": "nM"}
    ]},
    {"smiles": "CCCCC/C=C\\C/C=C\\C/C=C\\[C@@H](C)/C=C\\CCCC(=O)OC(CO)CO", "note": "[Compound 5.4.3b, 1,3-Dihydroxypropan-2-yl (S,5Z,8Z,11Z,14Z)-7-methylicosa-5,8,11,14-tetraenoate]", "values": [
      {"measurement": "EC50", "setting": "CB1 receptor [5]", "result": "> 1000", "unit": "nM"},
      {"measurement": "EC50", "setting": "CB2 receptor [1]", "result": "> 1000", "unit": "nM"}
    ]},
    {"smiles": "CCCCC/C=C\\[C@H](C)/C=C\\C/C=C\\C/C=C\\CCCCNC(=O)COC", "note": "[Compound 6.1.1, 2-Methoxy-N—((S,5Z,8Z,11Z,14Z)-13-methylicosa-5,8,11,14-tetraen-1-yl)acetamide]", "values": [
      {"measurement": "Ki", "setting": "CB1 receptor [2]; [8]", "result": "0.01 to 10", "unit": "nM"},
      {"measurement": "functional profile at CB2 (cAMP)", "setting": "CB2 receptor (hCB2); full or partial agonist", "result": "partial agonist"},
      {"measurement": "EC50", "setting": "CB2 receptor (hCB2); numeric", "result": 1.2, "unit": "nM"},
      {"measurement": "Emax", "setting": "CB2 receptor (hCB2); [9]", "result": 40, "unit": "%"},
      {"measurement": "Ki", "setting": "CB2 receptor [6]", "result": "0.01 to 10", "unit": "nM"}
    ]}
  ]
}
